Laboratory results: patent US11129910B2, “Specific conjugation linkers, specific immunoconjugates thereof, methods of making and uses such conjugates thereof” (priority 2016, dated 2021)
pIC50: −log10 of the molar value.

Columns and labels:
[1] = test system: NCI-N87, a human gastric carcinoma cell line; experiment: In vitro cytotoxicity (MTT) assay; format: cell-based; details: NCI-N87 cells, 120 hours incubation, read-out: N87 cell (Ag+) IC50
Method: The cell line used in the cytotoxicity assays was NCI-N87, a human gastric carcinoma cell line. The cells were grown in RPMI-1640 with 10% FBS. To run the assay, the cells (180 μl, 6000 cells) were added to each well in a 96-well plate and incubated for 24 hours at 37° C. with 5% CO2. Next, the cells were treated with test compounds (20 μl) at various concentrations in appropriate cell culture medium (total volume, 0.2 mL). The control wells contain cells and the medium but lack the test compounds. The plates were incubated for 120 hours at 37° C. with 5% CO2. MTT (5 mg/ml) was then added to the wells (20 μl) and the plates were incubated for 1.5 hr at 37° C. The medium was carefully removed and DMSO (180 μl) was added afterward. After it was shaken for 15 min, the absorbance was measured at 490 nm and 570 nm with a reference filter of 620 nm. The inhibition % was calculated according to the following equation: inhibition %=[1-(assay-blank)/(control-blank)]×100.

[2] = test system: human gastric carcinoma N-87 cell line tumor xenograft; experiment: Antitumor activity in vivo, tumor xenograft model; design: species or system BALB/c Nude mice
Method: The in vivo efficacy of conjugates 196a, 201, 206, 354, 358, 370, 377, 385, and 407 along with T-DM1 were evaluated in a human gastric carcinoma N-87 cell line tumorxenograft models. Five-week-old female BALB/c Nude mice ([…]) were inoculated subcutaneously in the area under the right shoulder with N-87 carcinoma cells (5×10^6 cells/mouse) in 0.1 mL of serum-free medium. The tumors were grown for 8 days to an average size of 130 mm^3. The animals were then randomly divided into […] (6 animals per group). The first group of mice served as the control group and was treated with the phosphate-buffered saline vehicle. The remaining […] were treated with conjugates 196a, 201, 206, 354, 358, 370, 377, 385, 407 and T-DM1 respectively at dose of 6 mg/Kg administered intravenously. Three dimensions of the tumor were measured every 4 days and the tumor volumes were calculated using the formula tumor volume=1/2 (length×width×height). The weight of the animals was also measured at the same time. A mouse was sacrificed when any one of the following criteria was met: (1) loss of body weight of more than 20% from pretreatment weight, (2) tumor volume larger than 1500 mm^3, (3) too sick to reach food and water, or (4) skin necrosis. A mouse was considered to be tumor-free if no tumor was palpable.

T-DM1
pIC50 [1]: 10.15
duration of tumor growth inhibition ([2]; 6 mg/Kg intravenously): 38 days
elimination / eradication of the tumors ([2]; 6 mg/Kg, i.v., one injection): not able to eliminate the tumors
